The numbers were not newly measured in patent US9023395B2, “Formulation of active agent loaded activated PLGA nanoparticles for targeted cancer nano-therapeutics” (University of North Texas Health Science Center at Fort …, priority 2007, dated 2015), which cites them from elsewhere.

The conditions of the series: for Solubility: solvent in which the linker is soluble.

With `O=C(CCN1C(=O)C=CC1=O)ON1C(=O)CCC1=O` [BMPS, N-[b-maleimidopropyl-oxy] succinimide ester], the water solubility entry was “water insoluble” and the Solubility entry is listed as “DMSO”.

For `O=C(CCCC(=O)ON1C(=O)CCC1=O)ON1C(=O)CCC1=O` [DSG, Disuccinimidyl glutarate], the water solubility entry is on record as “water insoluble” and the Solubility result is on record as “DMSO”.

For the compound `CCCCCCCCCCCCCCCC(=O)ON1C(=O)CCC1=O` [PAS, Palmitic acid N- hydroxysuccin- imide ester], the Solubility result was “DMSO”.
